System: A431 cells
Test: EW-excited fluorescence of IRDye labeled EGF interacting with A431 cells on RWG biosensor microplate
Type: cell-based, human
Procedure: 384-well Epic® cell assay microplates were obtained from Corning Inc. (Corning, N.Y.). The surface of each Epic® cell assay microplate is tissue culture compatible and enables the attachment and normal growth of adherent cells, including native cells, recombinant or engineered cell lines, primary cells, and like cells.
Cell culturing—Human epidermoid carcinoma A431 cells (American Type Cell Culture) were grown in Dulbecco's modified Eagle's medium (DMEM) supplemented with 10% fetal bovine serum (FBS), 4.5 g/liter glucose, 2 mM glutamine, and antibiotics. About 1.5 to about 2×10^4 cells at passage 3 to 15 suspended in 200 microliters of the DMEM medium containing 10% FBS were placed in each well of a 384-well microplate. After cell seeding, the cells were cultured at 37° C. under air/5% CO2 until about 95% confluency was reached (about 1-2 days). The confluent cells were washed with serum-free medium and incubated in the same medium at 37° C. under air/5% CO2 for 20 hours. On the day of assay, the cells were washed with HBSS (Hanks Balanced Salt Solution with 20 mM HEPES) buffer. The resulting A431 cells were assayed without or with pretreatment with modulators including, for example, AG1478, dynamin inhibitory peptide (DIPC), or unlabeled EGF. The EGFR was activated with the IRDye® labeled EGF and the resultant DMR signals were then recorded.
Optical system—An optical detection system is constructed and used for dual-detection of both EW-based labeled-free signal and EW-excited fluorescence of IR dye molecules as shown in FIG. 2C.
FIGS. 12A to 12D show measured fluorescence intensities of A431 cells cultured on the biosensor microplate surfaces in response to stimulation with IRDye® labeled EGF (64 nM), as a function of time.

[1] = pretreatment 10 micromolar for 1 hr, then IRDye labeled EGF 64 nM (FIG. 12C)

Compound: COc1cc2ncnc(Nc3cccc(Cl)c3)c2cc1OC [AG1478]
- effect on decay phase in fluorescence intensity [1]: completely blocked
- effect on initial increase phase in fluorescence intensity [1]: complicated effects

Compound: IRDye-EGF: near-infrared (NIR) labeled recombinant human epidermal growth factor, 54 amino acid residues, conjugated with the IRDye fluorophore; LI-COR Biosciences
- fluorescence intensity as a function of time (IRDye labeled EGF 64 nM, A431 cells without any pretreatment (FIG. 12A)): an initial increase in fluorescence; and thereafter by a slow decrease in fluorescence

Compound: unlabeled EGF: epidermal growth factor; causes receptor internalization and desensitization; obtained from Sigma
- effect on both the increase and decrease phase in fluorescence intensity (pretreatment 32 nM for 1 hr, then IRDye labeled EGF 64 nM (FIG. 12D)): almost completely blocked

From patent publication US20120064519A1, “SYSTEM AND METHOD FOR DUAL-DETECTION OF A CELLULAR RESPONSE” (priority 2007, published 2012)
